Assay results from patent US11639352B2, “Benzothiazole compounds for the treatment of autoimmune diseases” (Hoffmann-La Roche Inc., priority 2018, dated 2023).

Molecular target: T1, human TLR7 (Homo sapiens, UniProt Q9NYK1)
T1 sequence (Q9NYK1 27-1049): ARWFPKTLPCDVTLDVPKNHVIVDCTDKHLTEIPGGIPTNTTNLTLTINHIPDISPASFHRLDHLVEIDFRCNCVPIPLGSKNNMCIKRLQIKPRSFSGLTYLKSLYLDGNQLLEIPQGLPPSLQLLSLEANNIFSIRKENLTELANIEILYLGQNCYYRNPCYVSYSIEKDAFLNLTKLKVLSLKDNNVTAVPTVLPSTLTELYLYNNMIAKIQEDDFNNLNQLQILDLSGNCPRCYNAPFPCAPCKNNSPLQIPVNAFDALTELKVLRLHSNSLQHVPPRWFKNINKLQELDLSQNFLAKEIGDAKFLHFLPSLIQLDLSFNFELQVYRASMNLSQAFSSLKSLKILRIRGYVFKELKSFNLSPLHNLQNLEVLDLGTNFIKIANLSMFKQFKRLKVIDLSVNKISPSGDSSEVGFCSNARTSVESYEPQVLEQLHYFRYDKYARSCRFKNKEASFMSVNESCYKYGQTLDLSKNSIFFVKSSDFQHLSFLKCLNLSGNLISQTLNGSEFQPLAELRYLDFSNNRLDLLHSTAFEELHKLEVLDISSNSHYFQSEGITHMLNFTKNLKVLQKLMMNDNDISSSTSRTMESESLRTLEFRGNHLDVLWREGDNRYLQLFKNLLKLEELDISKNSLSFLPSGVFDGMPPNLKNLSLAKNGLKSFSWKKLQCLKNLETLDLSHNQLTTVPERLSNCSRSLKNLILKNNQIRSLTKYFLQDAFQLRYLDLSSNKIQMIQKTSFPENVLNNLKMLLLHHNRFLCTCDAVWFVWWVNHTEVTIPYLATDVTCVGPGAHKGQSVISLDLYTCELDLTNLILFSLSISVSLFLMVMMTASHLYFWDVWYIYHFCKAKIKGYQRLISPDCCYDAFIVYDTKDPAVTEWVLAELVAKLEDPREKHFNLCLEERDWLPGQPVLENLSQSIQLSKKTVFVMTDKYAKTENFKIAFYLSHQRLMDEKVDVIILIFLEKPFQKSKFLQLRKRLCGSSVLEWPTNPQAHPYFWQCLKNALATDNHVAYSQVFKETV
Assay: HEK293-Blue-hTLR-7 cells assay (SEAP reporter, R848 stimulation)
Type: cell-based
Conditions: HEK293-Blue-hTLR7 cells, R848 ligand, 20 hrs incubation, antagonist
Protocol: The following tests were carried out in order to determine the activity of the compounds of formula (I) in HEK293-Blue-hTLR-7/8/9 cells assay.
HEK293-Blue-hTLR-7 Cells Assay:
A stable HEK293-Blue-hTLR-7 cell line was purchased from InvivoGen (Cat. #: hkb-htlr7, San Diego, Calif., USA). These cells were originally designed for studying the stimulation of human TLR7 by monitoring the activation of NF-κB. A SEAP (secreted embryonic alkaline phosphatase) reporter gene was placed under the control of the IFN-β minimal promoter fused to five NF-κB and AP-1-binding sites. The SEAP was induced by activating NF-κB and AP-1 via stimulating HEK-Blue hTLR7 cells with TLR7 ligands. Therefore the reporter expression was declined by TLR7 antagonist under the stimulation of a ligand, such as R848 (Resiquimod), for incubation of 20 hrs. The cell culture supernatant SEAP reporter activity was determined using QUANTI-Blue™ kit (Cat. #: rep-qb1, Invivogen, San Diego, Calif., USA) at a wavelength of 640 nm, a detection medium that turns purple or blue in the presence of alkaline phosphatase.
HEK293-Blue-hTLR7 cells were incubated at a density of 250,000˜450,000 cells/mL in a volume of 170 μL in a 96-well plate in Dulbecco's Modified Eagle's medium (DMEM) containing 4.5 g/L glucose, 50 U/mL penicillin, […], […], 2 mM L-glutamine, 10% (v/v) heat-inactivated fetal bovine serum with addition of 20 μL test compound in a serial dilution in the presence of final DMSO at 1% and 10 μL of 20 uM R848 in above DMEM, perform incubation under 37° C. in a CO2 incubator for 20 hrs. Then 20 μL of the supernatant from each well was incubated with 180 μL Quanti-blue substrate solution at 37° C. for 2 hrs and the absorbance was read at 620˜655 nm using a spectrophotometer. The signalling pathway that TLR7 activation leads to downstream NF-κB activation has been widely accepted, and therefore similar reporter assay was modified for evaluating TLR7 antagonist.

Compound `C[C@@H]1CN(c2ccc(C#N)c3ncsc23)C[C@H](CN2CC3(CCCNC3)C2)O1` [Example 4, 7-[(2S,6R)-2-(2,8-diazaspiro[3.5]nonan-2-ylmethyl)-6-methyl-morpholin-4-yl]-1,3-benzothiazole-4-carbonitrile] has an IC50 of 12 nM.

With `C[C@@H]1CN(c2ccc(C#N)c3ncsc23)C[C@H](CN2CCC3(CCCN(C)C3)CC2)O1` [Example 10, 7-[(2R,6S)-2-methyl-6-[(2-methyl-2,9-diazaspiro[5.5]undecan-9-yl)methyl]morpholin-4-yl]-1,3-benzothiazole-4-carbonitrile] the IC50 was 15 nM.

In the case of `C[C@@H]1CN(c2ccc(C#N)c3ncsc23)C[C@H](CN2CCC3(CCCNC3)C2)O1` (stereo partly drawn) [Example 1, 7-[(2S,6R)-2-(2,9-diazaspiro[4.5]decan-2-ylmethyl)-6-methyl-morpholin-4-yl]-1,3-benzothiazole-4-carbonitrile], the IC50 is reported as 11 nM.

Work on `C[C@@H]1CN(c2ccc(C#N)c3ncsc23)C[C@H](C(=O)NC2CCN(C)CC2)O1` [Example 11, (2R,6R)-4-(4-cyano-1,3-benzothiazol-7-yl)-6-methyl-N-(1-methyl-4-piperidyl)morpholine-2-carboxamide] yielded an IC50 of 5 nM.

Work on `C[C@@H]1CN(c2ccc(C#N)c3ncsc23)C[C@H](CN2CCC3(CCNC3)CC2)O1` [Example 6, 7-[(2S,6R)-2-(2,8-diazaspiro[4.5]decan-8-ylmethyl)-6-methyl-morpholin-4-yl]-1,3-benzothiazole-4-carbonitrile] yielded an IC50 of 41 nM.

Work on `C[C@@H]1CN(c2ccc(C#N)c3ncsc23)C[C@H](CN2CCC3(CCCNC3)CC2)O1` [Example 3, 7-[(2S,6R)-2-(2,9-diazaspiro[5.5]undecan-9-ylmethyl)-6-methyl-morpholin-4-yl]-1,3-benzothiazole-4-carbonitrile] yielded an IC50 of 19 nM.

For `C[C@@H]1CN(c2ccc(C#N)c3ncsc23)C[C@H](CN2[C@@H]3CC[C@H]2C[C@@H](N)C3)O1` [Example 8, Endo-7-[(2S,6R)-2-[[(1R,5S)-3-amino-8-azabicyclo[3.2.1]octan-8-yl]methyl]-6-methyl-morpholin-4-yl]-1,3-benzothiazole-4-carbonitrile], the IC50 was 16 nM.

Work on `C[C@@H]1CN(c2ccc(C#N)c3ncsc23)C[C@H](CN2[C@@H]3CC[C@H]2C[C@H](N)C3)O1` [Example 9, Exo-7-[(2S,6R)-2-[[(1S,5R)-3-amino-8-azabicyclo[3.2.1]octan-8-yl]methyl]-6-methyl-morpholin-4-yl]-1,3-benzothiazole-4-carbonitrile] yielded an IC50 of 45 nM.

For `C[C@@H]1CN(c2ccc(C#N)c3ncsc23)C[C@H](CN2CCC(N3CCCCC3)CC2)O1` [Example 7, 7-[(2R,6S)-2-methyl-6-[[4-(1-piperidyl)-1-piperidyl]methyl]morpholin-4-yl]-1,3-benzothiazole-4-carbonitrile], the IC50 was 13 nM.

For `C[C@@H]1CN(c2ccc(C#N)c3ncsc23)C[C@H](C(=O)NCC2CN(C)CCO2)O1` (stereo partly drawn) [Example 12, (2R,6R)-4-(4-cyano-1,3-benzothiazol-7-yl)-6-methyl-N-[(4-methylmorpholin-2-yl)methyl]morpholine-2-carboxamide], the IC50 was 4 nM.

For `C[C@@H]1CN(c2ccc(C#N)c3ncsc23)C[C@H](CN2CCC3(CCNCC3)CC2)O1` [Example 5, 7-[(2S,6R)-2-(3,9-diazaspiro[5.5]undecan-3-ylmethyl)-6-methyl-morpholin-4-yl]-1,3-benzothiazole-4-carbonitrile], the IC50 was 48 nM.

`C[C@@H]1CN(c2ccc(C#N)c3ncsc23)C[C@H](CN2CCC(N)CC2)O1` [Example 2, 7-[(2S,6R)-2-[(4-amino-1-piperidyl)methyl]-6-methyl-morpholin-4-yl]-1,3-benzothiazole-4-carbonitrile] was tested, and the IC50 was 26 nM.
